Data as given in patent US6599541B1, “Composition for treatment of drug resistant bacterial infections and a method of treating drug resistant bacterial infections” (priority 1999, dated 2003).
In brackets after ≈: the same amount, converted by molar mass. Several values for one entry are separate records, joined by “and”; a condition that tells them apart may be missing. Equal entries are not always repeated.

Assays:
Staphylococcus aureus [1] = assay: Broth Macro Dilution Test, MIC and MBC; type: cell-based; settings: Example 12: strain from non-healing burn wound swab culture, antibiotic alone
Experimental: This was done by estimation of the Minimum Inhibitory Concentration (MIC) and Minimum Bactericidal Concentration (MBC) on the selected isolates by a Broth Macro Dilution Test.
Cation Supplemented Mueller Hinton Broth was used as medium for all organisms excepting for β haemolytic streptococci for which, Todd Hewit's Broth was used as medium.
The following concentrations of antibiotics were tested to determine MIC and MBC.
A minimum inhibitory concentration is the lowest level of antibiotic needed to cause an inhibition to bacterial growth in culture medium whereas, the minimum bactericidal concentration is the lowest concentration of antibiotic to achieve a 100% killing of bacteria. Thus, these two values are the practical indices of intensity of bacterial resistance to a given antibiotic. On the other hand, a break-even point of any antibiotic indicates the attainable blood levels after an administration of full dose, in human/animal body. Thus, this point indicates the practical dosage of administering any given antibiotic effectively and beyond this point, even if an antibiotic is found to act effectively in experimental situation—such dose cannot be administered in a clinical situation.

Mixed Infections = assay: Clinical study of NE tablets + antibiotic in non-responding infections
Klebsiella pneumoniae = assay: Agar Dilution Method of Sensitivity testing, NE alone and NE + antibiotic; type: cell-based; settings: 41 resistant K. pneumoniae strains, 48 hours
Experimental: (§1) Two kinds of investigations were carried-out using these bacterial isolates—using an Agar Dilution Method of Sensitivity testing.
(§2) i) To ascertain whether, NE can work as an antibacterial substance on its own. For this purpose, a stock-solution of NE was prepared and was sterilized as described in the preliminary experiments.
(§3) ii) This stock-solution was dispensed into the culture medium (Mueller Hinton Agar) so as to provide while; the medium was in liquid form. Four different concentrations of NE, viz.
(§4) iii) This medium was poured into petri dishes and allowed to solidify. Resistant cultures were inoculated on to these plates and after incubation for 48 hours, the growth patterns were assessed.
(§5) iv) The experiments were run in triplicate, for each concentration—as per standard practices of microbiological testing procedures.
(§6) i) The culture medium (Mueller Hinton Agar) was melted and distributed into a number of test tubes.
(§7) ii) The stock solution of NE was dispensed into these test tubes in four different concentrations viz.
(§8) iii) In the same medium, one of the antibiotics under investigation was also added so as to provide a variable concentration (at break-even point concentration) as described below:
(§9) iv) The culture medium containing NE extract+the antibiotic were poured into petri dishes and allowed to solidify.
(§10) v) The resistant bacterial strains were inoculated onto these plates, incubated for 48 hours and the growth patterns were studied on each plate.
Under the same series of investigations, sensitization effect of NE was evaluated on resistant isolates of Klebsiella pneumoniae.

Staphylococcus aureus [2] = assay: as above; type: cell-based; settings: resistant S. aureus cultures, 48 hours
Experimental: as §1, §2, §3, §4, §5, §6, §7, §8, §9, §10
These cultures were obtained various clinical samples, such as sputum, non-healing infected wounds, throat swabs etc.

Escherichia coli = assay: as above; type: cell-based; settings: 37 resistant E. coli strains, 48 hours
Experimental: as §1, §2, §3, §4, §5, §6, §7, §8, §9, §10

Staphylococcus aureus [3] = assay: Broth tube test of NE with antibiotic at break point, percentage of killing; type: cell-based; settings: Example 12 strain; antibiotic with NE, uniform for all the concentrations of NE
Experimental: Since all the study isolates are resistant to the concerned antibiotics, each antibiotic is taken at its breakpoint concentration, (the highest serum concentration of that particular antibiotic reached after the maximum therapeutic dose in-vivo). The break points for various antibiotics are as follows:
Preparation of Neem Extract: Stock solution of neem extract (1 mg/ml) was prepared, filtered and autoclaved. It was used in 4 concentrations—1000 μg/ml; 500 μg/ml; 250 μg/ml; 125 μg/ml.
A set of four tubes with variable concentrations of the extract is prepared and to each of these tubes, the break point concentration of antibiotics is added. Now, these sets are inoculated with the study isolate in the same manner as per the broth dilution procedure. A set of six controls is inoculated with each isolate—in parallel with the main experiment.
2. Only antibiotic solution
3. Medium and antibiotic solution with inoculum
5. Only Neem extract at 250 μg/ml
6. Medium with Neem Extract and inoculum
Reading the test All the tests and control tubes are observed for visible turbidity of growth first. Since all the study isolates were earlier confirmed to be resistant to the antibiotics, the bacterial growth is expected at the breakpoint concentration of the antibiotic. Any reduction in the turbidity as compared to the control tube no. 3 is noted as a possible additive or synergistic effect of the neem extract with the antibiotic. In absence of such effect, the tubes may show growth matching with the control no. 4.
In case of a positive result, further sub-culturing was taken up, on solid media for colony counts with a calibrated loop. The colony counts could be noted by a semi quantitative method as 101 to 10^5 CFU/ml (Colony forming units). This is finally expressed as the percentage of killing as compared to the colony count obtained with control no. 4. Usually control tubes no. 3, 4 and 6 had similar colony counts.

Proteus mirabilis = assay: Agar Dilution Method of Sensitivity testing, NE + antibiotic; type: cell-based; settings: resistant Proteus mirabilis strains, 48 hours
Experimental: as §1, §6, §7, §8, §9, §10
The sensitization effect of NE was also examined on Proteus mirabilis strains resistant to Penicillin derivatives and quinolone derivative antibiotics.

[4] = tested on: respiratory/surgical infections by bacteria resistant to the antibiotic; assay: Clinical study of NE tablets + antibiotic in non-responding infections, all cases; settings: NE tablets 100 mg twice a day + that antibiotic, 1-3 weeks
Staphylococcus aureus [5] = assay: Clinical study of NE tablets + antibiotic in non-responding infections; settings: NE tablets + antibiotic to which resistant
[6] = Respiratory Infections, NE tablets + antibiotic to which resistant
[7] = all mixed infections resistant to the antibiotic, NE tablets + antibiotic
[8] = antibiotic at break-even point + NE 125 μg/mL
[9] = antibiotic at break-even point + NE 250 μg/mL
[10] = antibiotic at break-even point + NE 500 μg/mL
[11] = antibiotic at break-even point + NE 1000 μg/mL

`CC1(C)S[C@@H]2[C@H](NC(=O)[C@H](N)c3ccccc3)C(=O)N2[C@H]1C(=O)O` [Ampicillin] was tested, and the MBC (Staphylococcus aureus [1]) was greater than 128 µg/mL, the MIC (Staphylococcus aureus [1]) was 64 µg/mL (≈ 183 µM) and the “No. of Cases Gr.-I” value (Mixed Infections; [6]) was 1. The “No. of Cases Gr.-II” value (Mixed Infections; [6]) was 1, the “No. of Cases Gr.-II” value (Mixed Infections; Surgical Infections, NE tablets + antibiotic to which resistant) was 1 and the “No. of cases with effective sensitization / complete response” value (Mixed Infections; [7]) was 2. For the same molecule, the “No. of cases with partial response” value (Mixed Infections; [7]) was “one”, the “Growth Patterns after addition of NE: no. of cultures +++ (growth)” value (from here on “Growth Patterns … no. of cultures +++ (growth)”) (Klebsiella pneumoniae; [8]) was 17 and the “Growth Patterns after addition of NE: no. of cultures −−− (inhibition of growth)” value (Klebsiella pneumoniae; [8]) was 24. The “Growth Patterns … no. of cultures +++ (growth)” value (Klebsiella pneumoniae; [9]) was 17, the “Growth Patterns after addition of NE: no. of cultures −−− (inhibition of growth)” value (Klebsiella pneumoniae; [9]) was 24 and the “Growth Patterns … no. of cultures +++ (growth)” value (Klebsiella pneumoniae; [10]) was 17. The “Growth Patterns after addition of NE: no. of cultures −−− (inhibition of growth)” value (Klebsiella pneumoniae; [10]) was 24, the “Growth Patterns … no. of cultures +++ (growth)” value (Klebsiella pneumoniae; [11]) was 17 and the “Growth Patterns after addition of NE: no. of cultures −−− (inhibition of growth)” value (Klebsiella pneumoniae; [11]) was 24. For the same molecule, the “Growth Patterns … no. of cultures +++ (growth)” value (Staphylococcus aureus [2]; [8]) was 34, the “Growth Patterns after addition of NE: no. of cultures −−− (inhibition of growth)” value (Staphylococcus aureus [2]; [8]) was 68 and the “Growth Patterns … no. of cultures +++ (growth)” value (Staphylococcus aureus [2]; [9]) was 29. The “Growth Patterns after addition of NE: no. of cultures −−− (inhibition of growth)” value (Staphylococcus aureus [2]; [9]) was 73, the “Growth Patterns … no. of cultures +++ (growth)” value (Staphylococcus aureus [2]; [10]) was 26 and the “Growth Patterns after addition of NE: no. of cultures −−− (inhibition of growth)” value (Staphylococcus aureus [2]; [10]) was 76. For the same molecule, the “Growth Patterns … no. of cultures +++ (growth)” value (Staphylococcus aureus [2]; [11]) was 20, the “Growth Patterns after addition of NE: no. of cultures −−− (inhibition of growth)” value (Staphylococcus aureus [2]; [11]) was 82 and the “Growth Patterns … no. of cultures +++ (growth)” value (Escherichia coli; [8]) was 31. The “Growth Patterns after addition of NE: no. of cultures −−− (inhibition of growth)” value (Escherichia coli; [8]) was 6, the “Growth Patterns … no. of cultures +++ (growth)” value (Escherichia coli; [9]) was 31 and the “Growth Patterns after addition of NE: no. of cultures −−− (inhibition of growth)” value (Escherichia coli; [9]) was 6. For the same molecule, the “Growth Patterns … no. of cultures +++ (growth)” value (Escherichia coli; [10]) was 31, the “Growth Patterns after addition of NE: no. of cultures −−− (inhibition of growth)” value (Escherichia coli; [10]) was 6 and the “Growth Patterns … no. of cultures +++ (growth)” value (Escherichia coli; [11]) was 31. The “Growth Patterns after addition of NE: no. of cultures −−− (inhibition of growth)” value (Escherichia coli; [11]) was 6, the killing (Staphylococcus aureus [3]) was 80% and 70% and the “Growth Patterns … no. of cultures +++ (growth)” value (Proteus mirabilis; [8]) was 7. The “Growth Patterns after addition of NE: no. of cultures −−− (inhibition of growth)” value (Proteus mirabilis; [8]) was 3, the “Growth Patterns … no. of cultures +++ (growth)” value (Proteus mirabilis; [9]) was 7 and the “Growth Patterns after addition of NE: no. of cultures −−− (inhibition of growth)” value (Proteus mirabilis; [9]) was 3. The “Growth Patterns … no. of cultures +++ (growth)” value (Proteus mirabilis; [10]) was 7, the “Growth Patterns after addition of NE: no. of cultures −−− (inhibition of growth)” value (Proteus mirabilis; [10]) was 3 and the “Growth Patterns … no. of cultures +++ (growth)” value (Proteus mirabilis; [11]) was 7. The “Growth Patterns after addition of NE: no. of cultures −−− (inhibition of growth)” value (Proteus mirabilis; [11]) was 3 and the “No. of cases with Grade-II response (complete clinical and bacteriological)” value [4] was 4.
In the case of `CC[C@H]1OC(=O)[C@H](C)[C@@H](O[C@H]2C[C@@](C)(OC)[C@@H](O)[C@H](C)O2)[C@H](C)[C@@H](O[C@@H]2O[C@H](C)C[C@H](N(C)C)[C@H]2O)[C@](C)(O)C[C@@H](C)/C(=N\OCOCCOC)[C@H](C)[C@@H](O)[C@]1(C)O` [Roxythromycin], the “No. of Cases Gr.-I” value (Staphylococcus aureus [5]; Respiratory Infections) was 1, the “No. of Cases Gr-0” value (Staphylococcus aureus [5]; Surgical Infections) was 1 and the “No. of Cases Gr.-II” value (Staphylococcus aureus [5]; Surgical Infections) was 2. The “No. of cases with Grade-II response (complete clinical and bacteriological)” value [4] was 2.
